We go through one molecule from patent EP4467137A1, “TREATMENT OF FRONTOTEMPORAL DEMENTIA OR FRONTOTEMPORAL LOBAR DEMENTIA” (Universidad Autónoma de Madrid, priority 2023, dated 2024).

Data set [1] has as its system hyperphosphorylated tau. In words: In vivo hTauP301L model: hippocampal hyperphosphorylated tau by AT8 and AT180 immunofluorescence. On the set-up: species or system mouse. Conditions: 35 days. Here is the method:
In vivo hTau301L model was induced by stereotaxic injection of AAV-hTauP301L (AAV-hTau) particles as described in [Luengo, Enrique et al. "Implication of type 4 NADPH oxidase (NOX4) in tauopathy." Redox biology vol. 49 (2022): 102210. doi:10.1016/j.redox.2021.102210 ]. Control animals were injected with AAV-GFP. Evaluation of hyperphosphorylated tau in sarkosyl soluble and insoluble fractions; microgliosis; AT8 and AT180 by immunofluorescence; and cognitive test were performed as described previously [Luengo, Enrique et al. "Implication of type 4 NADPH oxidase (NOX4) in tauopathy." Redox biology vol. 49 (2022): 102210. doi:10.1016/j.redox.2021.102210 ].
Oral administration of Compound 1 at different dosages (20 mg·kg^-1 and 50 mg·kg^-1) was administered embedded in gelatine. The compound was given in a mixture of 10 % gelatine from porcine skin and 10 % sucralose in water, heated in a microwave oven. Before Compound 1 addition, gelatine mixture was left at RT. Afterwards, the compound was added, evenly mixed and plated 1 mL·well^-1 in a P24 plate. Before AAV injection, mice were trained to eat the gelatines by giving them one gelatine (without compound) per day for 4 consecutive days. After AAV injection, mice were treated once a day with control or Compound 1 gelatines for 35 consecutive days. This approach was followed in adult (3-4 months old) and aged (16-18 months old) mice injected with AAV-GFP or AAV-hTauP301L.
Example 2.5. Compound 1 ameliorates hTauP301L induced FTD and cognitive decline in adult (3-4 months old) mice. FTD was generated in adult male and female C57BL/6J mice (3-4 months old) by bihippocampal injection of AAV-hTau particles containing the P301L mutation. Mice were treated orally once a day with a single dose of 20 or 50 mg/kg of Compound 1 formulated in gelatines the day after stereotaxic delivery of AAVs (GFP or TauP301L, to controls and FTD, respectively). After 35 days treatment, hyperphosphorylated tau levels were evaluated by immunofluorescence and by WB in soluble and insoluble in sarkosyl fractions. Also, behavioural tests were conducted to study the cognition status of the mice.
Hyperphosphorylated tau levels measured with the antibodies AT8 (p-Ser202/p-Thr205) and AT180 (p-Thr231) were analysed by immunofluorescence in fixed postmortem brain slices of treated mice (Figure 7A).
Example 2.6. Compound 1 ameliorates hTauP301L induced FTD and cognitive decline in aged (16-18 months old) mouse. To include the aging effect in the FTD model, the previous experiments were replicated in male and female 16-18 months old C57/BL6J mice.

In data set [2] the target is T1, human lipoxygenase-5 (hLOX-5) (Homo sapiens, UniProt P09917).
T1 sequence (P09917 1-674): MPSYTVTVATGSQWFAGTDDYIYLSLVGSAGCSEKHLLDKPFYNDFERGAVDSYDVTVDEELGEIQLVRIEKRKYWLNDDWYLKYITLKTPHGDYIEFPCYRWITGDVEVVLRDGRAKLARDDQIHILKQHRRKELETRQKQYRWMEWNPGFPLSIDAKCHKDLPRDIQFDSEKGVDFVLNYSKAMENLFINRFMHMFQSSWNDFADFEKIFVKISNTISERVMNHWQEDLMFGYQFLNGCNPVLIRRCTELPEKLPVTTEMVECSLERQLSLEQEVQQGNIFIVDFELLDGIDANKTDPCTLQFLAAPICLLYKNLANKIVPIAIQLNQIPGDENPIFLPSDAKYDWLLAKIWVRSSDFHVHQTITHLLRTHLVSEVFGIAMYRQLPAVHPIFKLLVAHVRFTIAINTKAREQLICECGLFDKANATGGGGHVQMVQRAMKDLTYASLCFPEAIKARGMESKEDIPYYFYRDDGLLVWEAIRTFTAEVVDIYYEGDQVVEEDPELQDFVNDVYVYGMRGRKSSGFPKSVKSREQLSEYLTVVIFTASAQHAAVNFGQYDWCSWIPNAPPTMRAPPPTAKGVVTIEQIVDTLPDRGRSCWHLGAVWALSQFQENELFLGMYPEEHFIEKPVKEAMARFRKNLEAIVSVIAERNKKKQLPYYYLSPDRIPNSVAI
In words: Inhibition of human lipoxygenase-5. The class given is biochemical. Conditions: mean ± SD of three independent experiments in triplicate; read-out: LOX5 IC50. Here is the method: The inhibition of human lipoxygenase-5 (hLOX-5) was performed as described [Herrera-Arozamena, Clara et al. "Tuning melatonin receptor subtype selectivity in oxadiazolone-based analogues: Discovery of QR2 ligands and NRF2 activators with neurogenic properties." European journal of medicinal chemistry vol. 190 (2020): 112090. doi:10.1016/j.ejmech.2020.112090], Data are the mean ± SD of three independent experiments performed in triplicate.

Data set [3] can be described thus: LPS in vivo model: sickness behaviour (body weight, locomotion, novel object recognition). On the set-up: species or system mouse. The conditions noted are these: 20 mg·kg^-1 i.p. On the procedure:
The LPS in vivo model was induced, sickness behaviour evaluated (locomotion test and novel object recognition test) and cytokines measured by qPCR as described by [Fernández-Mendivil, Cristina et al. "Protective role of microglial HO-1 blockade in aging: Implication of iron metabolism." Redox biology vol. 38 (2021): 101789. doi:10.1016/j.redox.2020.101789]. The panel of mouse cytokines, chemokines, and growth factors were measured by Luminex xMAP technology for multiplexed quantification at Evetechnologies (https://www.evetechnologies.com/)
Example 2.3.1. Treatment with Compound 1 reduces LPS-induced cytokine expression and release in mouse brain. Mice were treated i.p. with a daily dose of 20 mg·kg^-1 of Compound 1 for 4 consecutive days. On the last day, LPS (0.5 mg·kg^-1) was injected i.p. one h after the compound. Thereafter, behavioural, and biochemical outcomes were analysed at different time points.
Example 2.3.3. Treatment with Compound 1 reduces LPS-induced sickness behaviour. Peripheral administration of LPS produces neuroinflammation and induces a "sickness behaviour" in mice that is characterized by body weight loss, reduction of the locomotor activity and a cognitive decline.

A short description of data set [4]: In vitro blood-brain barrier permeation assay (PAMPA-BBB). The class given is in vitro ADME. The text has this:
The in vitro blood-brain barrier permeation assay (PAMPA-BBB) was used for predicting the brain penetration of compounds, following a described method [Herrera-Arozamena, Clara et al. "Resveratrol-Based MTDLs to Stimulate Defensive and Regenerative Pathways and Block Early Events in Neurodegenerative Cascades." Journal of medicinal chemistry vol. 65,6 (2022): 4727-4751. doi:10.1021/acs.jmedchem.1c01883]. The results are given as the mean ± SD. In each experiment, 11 quality control standards of known BBB permeability were included to validate the analysis set.

Setting [5] is: adult (3-4 months old) mice, 50 mg/kg/day oral.
The mark [6] stands for this setting: aged (16-18 months old) mice, 50 mg/kg oral.

Turning to `COc1ccc2c(c1)CC(c1c[nH]c3ccc(OC)cc13)N2` (stereo not shown) [Compound 1, 5-Methoxy-3-(5-methoxyindolin-2-yl)-1H-indole], in data set [1] (setting [5]), the “AT8 fluorescence in hippocampus (DG, CA1 and CA3)” value is “significantly reduced”; the “AT180 fluorescence in hippocampus (DG, CA1 and CA3)” value is recorded as “significantly reduced”. Also, in data set [1] (setting [6]), the “hyperphosphorylated tau levels by AT8 in DG, CA3 and CA1” value was “reduced”; the “hyperphosphorylated tau levels by AT180 in DG, CA3 and CA1” value is “reduced”. In addition, the IC50 in data set [2] was 3.08 ± 0.29 µM. For the same molecule, the “Locomotion, line crossings of an imaginary grid” value in data set [3] (4 and 8 h after LPS exposure, values similar to saline animals) is “improved”. Besides, the body weight loss result in data set [3] (compared to LPS-vehicle treated animals) is “less reduction of the body weight loss”. Further, the “cognitive decline (NOR test, discrimination index)” value in data set [3] (compared to vehicle-LPS treated animals) is given as “did not show cognitive decline”. In addition, in data set [4], the “PAMPA-BBB predicted brain penetration” value is recorded as “cns+”. The Papp in data set [4] (PAMPA, permeation rate, mean ± SD, read-out: PAMPA-BBB Pe) worked out at 12.9 ± 0.9 ×10⁻⁶ cm/s.
